Positions count from the first letter of the chain named. Like-named read-outs stand apart in the source and are kept apart here.
Legend:
CaSR = conditions: ref Spurney et al. 1999; cited from earlier work
[1] = tested on: mock-transfected HEK293 cells (Gα16-gust44 only); assay: Calcium mobilization assay, mock-transfected cells (Gα16-gust44 only); assay type: cell-based, human; conditions: any concentration tested (cromolyn 10 mM)
Description: (§1) Human embryonic kidney 293 (PEAKrapid, ATCC # CRL-2828) cells were cultured in Opti-MEM medium with 4% fetal bovine serum. One day before transfection, cells were seeded on a 96-well plate at a density of 25 000 per well. Cells were then transiently transfected with a TAS2R construct (0.1 µg/well) along with a G protein Gα16-gust44 (0.1 µg/well) construct by Lipofectamine 2000 (0.5 µl/well). For controls, only Gα16-gust44 was used (mock transfection). Twenty-four hours after transfection, cells were washed with HBSS including 10 mM HEPES and loaded with Fluo-4 in the dark for 1 h. After incubation, cells were washed 2 times with HBSS (including 10 mM HEPES), incubated in the dark for another 30 min, and then washed with assay solution once more before running the assay using a FlexStation III reader. Relative fluorescence units (excitation at 494 nm, emission at 516 nm, and auto cutoff at 515 nm) were read every 2 s for 2 min. Calcium mobilization traces were recorded.
(§2) Calcium mobilization traces were raw data obtained from single wells. Changes in fluorescence (ΔF) were calculated as the peak fluorescence minus baseline fluorescence ([Lei et al. 2015]). The calcium mobilization was quantified as the percentage of change (ΔF) relative to baseline (F). […] Calcium mobilization traces and bar graphs along with dose-dependent plots were all generated by GraphPad Prism 7. […]

[2] = target: T1, human TAS2R7 E264^7.32L mutant (Homo sapiens, UniProt Q9NYW3, E264L); assay: Calcium mobilization assay, TAS2R7 mutant E264L; assay type: cell-based; conditions: 20 mM metal ions except 0.16 mM Al2(SO4)3; cromolyn 10 mM; Figure 6B
T1 construct: signal peptide: first 45 amino acid residues of rat somatostatin receptor 3 (N); expressed in transfected cells; host or cells: HEK293 PEAKrapid (ATCC CRL-2828), transient, co-transfected with Gα16-gust44
T1 sequence (Q9NYW3 1-318 E264L): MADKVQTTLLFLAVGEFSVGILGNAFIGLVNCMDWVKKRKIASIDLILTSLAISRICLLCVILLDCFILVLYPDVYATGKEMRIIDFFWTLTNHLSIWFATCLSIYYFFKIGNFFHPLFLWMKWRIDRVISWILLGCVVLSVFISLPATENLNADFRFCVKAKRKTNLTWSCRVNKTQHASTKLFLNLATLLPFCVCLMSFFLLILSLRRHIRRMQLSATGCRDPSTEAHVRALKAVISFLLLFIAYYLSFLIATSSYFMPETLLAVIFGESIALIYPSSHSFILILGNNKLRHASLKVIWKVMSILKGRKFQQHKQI
From the text: (§3) The coding sequences of human TAS2Rs were amplified from human genomic DNA, then subcloned into pcDNA3.1(+) vector, with the herpes simplex virus glycoprotein D epitope (HSV) at the C-terminal and a signal peptide consisting of the first 45 amino acid residues of the rat somatostatin receptor 3 at the N-terminal, essentially as described previously ([Bufe et al. 2002]). Point mutations in human TAS2R7 (NCBI Reference Sequence: NP_076408.1) were constructed by site-directed mutagenesis. All the constructs were confirmed by Sanger sequencing.
as §1
as §2, with “7. Analysis of variance with Dunnett’s multiple comparisons test was used for statistical analysis. *P < 0.05.” for “7.”

[3] = target: T2, human TAS2R7 E264^7.32K mutant (Homo sapiens, UniProt Q9NYW3, E264K); assay: Calcium mobilization assay, TAS2R7 mutant E264K; assay type: cell-based; conditions: 20 mM metal ions except 0.16 mM Al2(SO4)3; cromolyn 10 mM; Figure 6B
T2 construct: signal peptide: first 45 amino acid residues of rat somatostatin receptor 3 (N); expressed in transfected cells; host or cells: HEK293 PEAKrapid (ATCC CRL-2828), transient, co-transfected with Gα16-gust44
T2 sequence (Q9NYW3 1-318 E264K): T1 sequence (Q9NYW3 1-318 E264L) with L264K
From the text: as §3, §1
(§4) Calcium mobilization traces were raw data obtained from single wells. Changes in fluorescence (ΔF) were calculated as the peak fluorescence minus baseline fluorescence ([Lei et al. 2015]). The calcium mobilization was quantified as the percentage of change (ΔF) relative to baseline (F). […] Calcium mobilization traces and bar graphs along with dose-dependent plots were all generated by GraphPad Prism 7. Analysis of variance with Dunnett’s multiple comparisons test was used for statistical analysis. *P < 0.05.
To assess the importance of these residues, we performed site-directed mutagenesis. We mutated the negatively charged residues E16^1.42, E264^7.32, and E271^7.39 to Q (glutamine), K (lysine), or L (leucine). The facing H94^3.37 was mutated to F (phenylalanine). HEK293 cells that expressed mutant receptors along with Gα16-gust44 were examined for their responses to metal ions (20 mM for all except 0.16 mM Al2(SO4)3) and cromolyn (10 mM, as a positive control) to assess receptor’s function. To determine the expression level of each receptor, we stained the wild-type or mutant receptor-transfected cells using an anti-HSV antibody since all the receptors are tagged with HSV at c-terminal. […]

human TAS2R7 = target: T3, human TAS2R7 (Homo sapiens, UniProt Q9NYW3); assay: Calcium mobilization assay, HEK293 cells transfected with TAS2R7 and Gα16-gust44; assay type: cell-based
T3 construct: first 45 residues of rat somatostatin receptor 3 (signal peptide) (N); expressed in transfected cells; host or cells: HEK293 (PEAKrapid, ATCC CRL-2828)
T3 sequence (Q9NYW3 1-318): T1 sequence (Q9NYW3 1-318 E264L) with L264E
From the text: as §3
All tested compounds were purchased from Sigma–Aldrich, with the exception of diphenidol hydrochloride (Reagent World) and L-praziquantel (manufactured by Shaoxing Pharmaceutical Co. Ltd.). All the metal ions were dissolved in the assay solution (130 mM NaCl, 5 mM KCl, 2 mM CaCl2, and 10 mM glucose; pH 7.4) unless specified otherwise, and the bitter compounds (diphenidol, quinine, and chlorphenamine) were dissolved first in dimethyl sulfoxide (DMSO) as stock solution and then diluted with the assay solution; the final DMSO concentration was below 0.5%, with the exception of cromolyn, which is dissolved in the assay solution directly. For our initial screening (Table 1), Hanks’ balanced salt solution (HBSS, ThermoFisher, catalog no. 14025134) supplemented with 10 mM hydroxyethyl piperazineethanesulfonic acid (HEPES) were used as the assay buffer.
as §1, §4
To determine whether a TAS2R responds to metal ions, we expressed all 25 human bitter receptors individually in HEK293 cells (PEAKrapid) by transient transfection of a TAS2R along with a coupling chimeric G protein, Gα16-gust44. All TAS2Rs were cloned from human genomic DNA. Activation of human TAS2Rs was monitored by the calcium mobilization assay ([Lei et al. 2015]). We tested these receptors individually for their responses toward metal ions: ZnSO4 (20 mM), CuSO4 (20 mM), and MgCl2 (20 mM) (Table 1, Figure 1A). […] To determine the breadth of tuning of TAS2R7 toward metal ions, we also tested MnCl2 (20 mM), Al2(SO4)3 ([…]), and CaCl2 (20 mM) (Figure 1B).

[4] = design: method as in Lau et al. 1991; conditions: administered systemically, animal studies; ref Lau et al. 1991; cited from earlier work

Response of E264L mutant receptor [2]: insensitive
Response of E264K mutant receptor [3]: specific loss of responses
Activation of TAS2R7 by metal ions (human TAS2R7; 20 mM, Figure 1A,B): activated the receptor
Dose dependence of TAS2R7 response (human TAS2R7; Figure 2A,C): dose-dependent responses
EC50 (human TAS2R7; assay solution containing calcium, Figure 3A, read-out: EC50, TAS2R7, in the presence of calcium): 29 µM
EC50 (human TAS2R7; assay solution containing no calcium, Figure 3A, read-out: EC50, TAS2R7, in the absence of calcium): 55 µM
EC50 (human TAS2R7; assay solution with 2 mM CaCl2, Figure 2, read-out: EC50, TAS2R7 concentration-response): 39 ± 15 µM
SMILES: O=S(=O)([O-])[O-].O=S(=O)([O-])[O-].O=S(=O)([O-])[O-].[Al+3].[Al+3] [Al2(SO4)3, aluminum sulfate]
Activity at CaSR (CaSR): weak agonist
Response of mock-transfected cells [1]: no responses
Concentration reached in serum [4]: 50 µM

Source: paper PMC6538953, “Metal Ions Activate the Human Taste Receptor TAS2R7” (Chemical Senses, 2019)
